Laboratory results reported in patent US7101878B1 (Agouron Pharmaceuticals, Inc., priority 1998, dated 2006).
Like-named read-outs stand apart in the source and are kept apart here. Values belong to the molecule of their own block, whether it stands above or below them.

What was measured:
[1] = Metabolism rate, pmol/min/mg at 1 μM, rat male; type: in vitro ADME; details: 1 μM compound
hGnRH receptor = biological target: T1, hGnRH receptor (Homo sapiens, UniProt P30968); test: Total inositol phosphates measurement, 293 cells containing the hGnRH receptor; type: cell-based; details: for GnRH functional: no species or readout annotated
T1 construct: expressed in transfected cells; host or cells: HEK 293 (hGnRH-R/293, from Dr. Stuart Sealfon)
T1 sequence (P30968 1-328): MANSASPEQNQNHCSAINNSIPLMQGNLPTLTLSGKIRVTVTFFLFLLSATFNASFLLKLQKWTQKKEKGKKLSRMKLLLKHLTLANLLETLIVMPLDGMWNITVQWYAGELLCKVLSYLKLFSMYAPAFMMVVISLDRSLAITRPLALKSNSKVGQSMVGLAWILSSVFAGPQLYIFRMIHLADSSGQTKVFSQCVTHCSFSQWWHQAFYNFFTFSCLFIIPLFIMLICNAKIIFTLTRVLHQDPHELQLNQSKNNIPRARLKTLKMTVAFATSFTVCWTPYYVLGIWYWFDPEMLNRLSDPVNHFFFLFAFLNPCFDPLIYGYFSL
Method: To assess the activity of the compounds as agonists or antagonists, an assay measuring accumulation of total inositol phosphates was employed. 293 cells containing the hGnRH receptor were plated onto 24-well plates (approximately 200,000 cells/well) using DMEM media. […] The medium was aspirated and the cells rinsed with serum-free DMEM. The medium was aspirated and the cells were then treated with test compounds or vehicle for 30 minutes at 37° C. […] The media was replaced with ice-cold 10 mM formic acid, which stopped the reaction and also served to extract cellular lipids. Inositol phosphates were separated by ion-exchange chromatography on Dowex columns, which were washed with 2.5 mL of 10 mM myoinositol and 10 mM formic acid. The columns were then washed with 5 mL of 60 mM sodium formate and […], and total inositol phosphates were eluted with 5 mL 1M ammonium formate, 0.1 M formic acid. The column eluates were added to liquid scintillation vials containing 15 ml of scintillation cocktail and were counted by liquid scintillation counting.
This cell line was provided by Dr. Stuart Sealfon, Mount Sinai Medical School New York, N.Y. These cells were grown in DMEM supplemented with 0.2 g/L G418 100 U/ml penicillin/streptomycin and 10% FBS. Both GGH3 and hGnRH-R/293 cells were utilized for both for both total inositol phosphate measurement and for microphysiometry assessment of compound efficacy.

[2] = Metabolism rate, pmol/min/mg at 1 μM, dog; type: in vitro ADME; details: 1 μM compound
[3] = Metabolism rate, pmol/min/mg at 1 μM, monkey; type: in vitro ADME; details: 1 μM compound
Glucagon = Glucagon (Homo sapiens, UniProt P47871); test: Selectivity: Glucagon
Glucagon, sequence (P47871 26-477): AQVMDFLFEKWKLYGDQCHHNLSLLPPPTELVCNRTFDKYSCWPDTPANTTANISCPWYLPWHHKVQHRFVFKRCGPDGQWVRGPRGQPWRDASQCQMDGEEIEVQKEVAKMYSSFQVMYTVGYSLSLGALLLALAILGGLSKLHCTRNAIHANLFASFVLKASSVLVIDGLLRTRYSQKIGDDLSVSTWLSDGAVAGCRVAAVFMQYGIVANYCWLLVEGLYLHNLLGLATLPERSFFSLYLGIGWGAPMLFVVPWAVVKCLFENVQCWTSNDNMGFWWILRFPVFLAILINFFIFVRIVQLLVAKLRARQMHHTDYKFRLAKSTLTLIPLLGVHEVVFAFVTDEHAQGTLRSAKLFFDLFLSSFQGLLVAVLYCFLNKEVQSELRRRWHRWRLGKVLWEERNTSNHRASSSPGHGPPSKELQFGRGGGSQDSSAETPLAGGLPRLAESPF

GLP-1 = GLP-1 (Homo sapiens, UniProt P43220); test: Selectivity: GLP-1
GLP-1, sequence (P43220 24-463): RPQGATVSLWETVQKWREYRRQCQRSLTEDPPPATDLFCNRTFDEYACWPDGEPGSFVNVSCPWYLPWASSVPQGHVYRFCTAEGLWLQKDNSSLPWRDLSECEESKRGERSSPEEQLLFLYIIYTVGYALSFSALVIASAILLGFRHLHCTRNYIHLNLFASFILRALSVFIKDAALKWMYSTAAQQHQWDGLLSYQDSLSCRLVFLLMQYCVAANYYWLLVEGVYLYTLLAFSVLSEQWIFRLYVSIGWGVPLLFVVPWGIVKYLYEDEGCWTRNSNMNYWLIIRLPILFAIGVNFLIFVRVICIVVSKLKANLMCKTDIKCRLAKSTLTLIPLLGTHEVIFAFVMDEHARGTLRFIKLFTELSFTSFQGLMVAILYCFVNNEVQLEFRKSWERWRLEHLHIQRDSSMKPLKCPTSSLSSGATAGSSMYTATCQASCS

5-HT2a = 5-HT2a (Homo sapiens, UniProt P28223); test: Selectivity: 5-HT2a
5-HT2a, sequence (P28223 whole entry, species assumed): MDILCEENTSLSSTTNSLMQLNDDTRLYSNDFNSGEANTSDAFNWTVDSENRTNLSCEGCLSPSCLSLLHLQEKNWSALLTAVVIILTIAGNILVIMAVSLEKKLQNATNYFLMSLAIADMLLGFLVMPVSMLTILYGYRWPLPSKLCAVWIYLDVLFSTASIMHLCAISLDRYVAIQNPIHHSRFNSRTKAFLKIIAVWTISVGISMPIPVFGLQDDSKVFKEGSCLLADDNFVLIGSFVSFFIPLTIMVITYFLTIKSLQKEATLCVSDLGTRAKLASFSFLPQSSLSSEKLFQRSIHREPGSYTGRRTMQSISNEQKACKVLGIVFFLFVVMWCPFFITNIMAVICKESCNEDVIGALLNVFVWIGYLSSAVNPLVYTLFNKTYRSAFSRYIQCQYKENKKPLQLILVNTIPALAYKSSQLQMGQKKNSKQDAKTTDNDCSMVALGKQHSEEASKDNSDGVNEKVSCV

[4] = tested on: LH levels in castrated rats; test: Castrated male rat model, LH suppression; type: in vivo
Source text: Experimental Protocol: Male Sprague-Dawley (225-250 g) rats were castrated and allowed 10 days postoperative recovery. Ten days post castration animals were instrumented with indwelling femoral venous and arterial catheters to facilitate remote infusions and blood sampling. On the day of the experiment, animals were allowed to acclimate to the procedure room while residing in their home cage. Basal blood samples were drawn from all animals. Following basal sampling, either vehicle (10% DMSO, 10% cremophor/saline), Antide (1.0 μg) or compound 11 (10 mg/kg) was administered intravenously. Blood samples were drawn 10, 60, 90, 120, 180, 240 minutes after injections. Blood was centrifuged, serum collected and stored in −70° freezer until assayed. Serum samples were analyzed using DSL-4600 ACTIVE LH coated-tube immunoradiometric assay kit from Diagnostic Systems Laboratories, Inc.
Surgical removal of the gonads removes circulating testosterone and eliminates the negative feedback of testosterone on the hypothalamus. […] This model seems suitable for evaluating small molecule GnRH antagonists.
Male Sprague-Dawley ([…]) rats were castrated via the scrotal approach under halothane anesthesia. Animals were allowed 14 days post operative recovery prior to study. Thirteen days following castration, animals were anesthetized with halothane and instrumented with indwelling jugular vein cannula. Details of the cannulation procedure have been described previously {Harms and Ojeda, 1974)}. On study day, animals were allowed to acclimate to the procedure room while residing in their home cage. Basal blood samples were drawn from all animals. Immediately following basal sampling, vehicle or test compounds were administered by various routes. The routes of administration employed were intravenous (iv), intramuscular (im), intraperitoneal (ip), subcutaneous (sc) and oral (po). Blood samples were drawn into heparin containing tubes at multiple time points post treatment. Blood was centrifuged immediately, plasma collected and stored in −20° freezer until assayed. Plasma samples were analyzed using DSL-4600 ACTIVE LH coated-tube immunoradiometric assay kit from Diagnostic Systems Laboratories, Inc.
Formulation #1 (denoted with superscript 1): 10% DMSO, 10% Cremophor EL and 80% physiological saline.
Formulation #2 (denoted with superscript 2): 10% Cremophor EL and 90% physiological saline.

[5] = Metabolism rate, pmol/min/mg at 1 μM, rat female; type: in vitro ADME; details: 1 μM compound

SMILES: COc1cc(OC)c(NC(=O)c2ccc(Cc3cc4c(cc3C)C(C)(C)CCC4(C)C)o2)c(OC)c1C#N [Compound 177]
- Rat male pmol/min/mg 1 μM [1]: 2930 pmol/min/mg
- GnRH functional (hGnRH receptor): Antag- onist
- Dog pmol/min/mg 1 μM [2]: 2456 pmol/min/mg
- Monkey pmol/min/mg 1 μM [3]: 3120 pmol/min/mg

SMILES: Cc1cc2c(cc1Cc1ccc(C(=O)NCC3CCCC(CNc4nccc(NCC5CCCO5)n4)C3)o1)C(C)(C)CCC2(C)C (stereo not drawn) [Compound 11]
- IC50 (Glucagon): 3.2 µM
- IC50 (GLP-1): > 10 µM

SMILES: COc1cc(OC)c(NC(=O)c2ccc(Cc3cc4c(cc3OC)C(C)(C)CCC4(C)C)o2)c(OC)c1 [Compound 169]
- Ki (5-HT2a): 2.71 µM
- Rat male pmol/min/mg 1 μM [1]: 3320 pmol/min/mg
- GnRH functional (hGnRH receptor): Antag- onist
- Dog pmol/min/mg 1 μM [2]: 2301 pmol/min/mg
- Monkey pmol/min/mg 1 μM [3]: 5940 pmol/min/mg

SMILES: COc1cc(OC)c(NC(=O)c2ccc(Cc3cc4c(cc3C)C(C)(C)CCC4(C)C)o2)c(OC)c1 [Compound 134]
- Ki (5-HT2a): 3.72 µM
- Rat male pmol/min/mg 1 μM [1]: 3909 pmol/min/mg
- Kb (hGnRH receptor; human, PI (inositol phosphates)): 0.013 µM
- GnRH functional (hGnRH receptor): Antag- onist
- Dog pmol/min/mg 1 μM [2]: 2159 pmol/min/mg
- % Max LH Suppression ([4]; 1.0 mg/kg iv): 24%
- time of % Max LH Suppression ([4]; 1.0 mg/kg iv): 0.5 h
- % Max LH Suppression ([4]; 5.0 mg/kg iv): 70%
- time of % Max LH Suppression ([4]; 5.0 mg/kg iv): 0.5 h
- % Max LH Suppression ([4]; 10 mg/kg iv): 100%
- time of % Max LH Suppression ([4]; 10 mg/kg iv): 0.5 h
- ≧50% Suppression Duration ([4]; 10 mg/kg iv): 2 h
- % Max LH Suppression ([4]; 20 mg/kg im): 73%
- LH in CX rats ([4]; 20 mg/kg im): suppresses LH
- time of % Max LH Suppression ([4]; 20 mg/kg im): 2 h
- ≧50% Suppression Duration ([4]; 20 mg/kg im): 8 h
- % Max LH Suppression ([4]; 20 mg/kg ip): 80%
- time of % Max LH Suppression ([4]; 20 mg/kg ip): 2 h
- ≧50% Suppression Duration ([4]; 20 mg/kg ip): 4 h
- % Max LH Suppression ([4]; 20 mg/kg po): 62%
- time of % Max LH Suppression ([4]; 20 mg/kg po): 4 h
- ≧50% Suppression Duration ([4]; 20 mg/kg po): 4 h
- % Max LH Suppression ([4]; 20 mg/kg sc): 53%
- time of % Max LH Suppression ([4]; 20 mg/kg sc): 8 h
- ≧50% Suppression Duration ([4]; 20 mg/kg sc): 8 h
- % Max LH Suppression ([4]; 100 mg/kg im): 98%
- time of % Max LH Suppression ([4]; 100 mg/kg im): 2 to 24 h
- ≧50% Suppression Duration ([4]; 100 mg/kg im): 24 h
- % Max LH Suppression ([4]; 100 mg/kg ip): 98%
- time of % Max LH Suppression ([4]; 100 mg/kg ip): 4 h
- ≧50% Suppression Duration ([4]; 100 mg/kg ip): 8 h
- % Max LH Suppression ([4]; 100 mg/kg po): 84%
- time of % Max LH Suppression ([4]; 100 mg/kg po): 4 h
- ≧50% Suppression Duration ([4]; 100 mg/kg po): 8 h
- % Max LH Suppression ([4]; 100 mg/kg sc): 80%
- time of % Max LH Suppression ([4]; 100 mg/kg sc): 6 h
- ≧50% Suppression Duration ([4]; 100 mg/kg sc): 8 h
- LH in CX rats ([4]; 1.0, 5.0 & 10 mg/kg, iv): dose-dependent suppression of LH
- LH in CX rats ([4]; 20 or 100 mg/kg, ip): suppresses LH
- Monkey pmol/min/mg 1 μM [3]: 9277 pmol/min/mg
- Rat female pmol/min/mg 1 μM [5]: 94 pmol/min/mg

SMILES: Cc1cc2c(cc1Cc1ccc(C(=O)NC[C@H]3CC[C@H](C(=O)O)CC3)o1)C(C)(C)CCC2(C)C [Compound 12]
- IC50 (Glucagon): 10 µM
- Ki (5-HT2a): > 4 µM
- Kb (hGnRH receptor): 0.17 µM

More lines, main results first:

- Rat male pmol/min/mg 1 μM [1]: 1246 pmol/min/mg
- GnRH functional (hGnRH receptor): Antag- onist
- Rat female pmol/min/mg 1 μM [5]: 64 pmol/min/mg
SMILES: COc1cc(OC)c(NC(=O)c2ccc(Cc3cc4c(cc3C)CCCC4(C)C)o2)c(OC)c1 [Compound 183]
- % Max LH Suppression ([4]; 10 mg/kg im): 58%
- time of % Max LH Suppression ([4]; 10 mg/kg im): 2 h
- % Max LH Suppression ([4]; 10 mg/kg iv): 92%
- time of % Max LH Suppression ([4]; 10 mg/kg iv): 1 h
- ≧50% Suppression Duration ([4]; 10 mg/kg iv): 8 h
- % Max LH Suppression ([4]; 50 mg/kg po): 60%
- time of % Max LH Suppression ([4]; 50 mg/kg po): 2 h
- ≧50% Suppression Duration ([4]; 50 mg/kg po): 8 h

- Rat male pmol/min/mg 1 μM [1]: 595 pmol/min/mg
- GnRH functional (hGnRH receptor): Antag- onist
- Rat female pmol/min/mg 1 μM [5]: 86 pmol/min/mg
SMILES: COc1cc(OC)c(NC(=O)c2ccc(Cc3cc(C(C)(C)C)ccc3C)o2)c(OC)c1 [Compound 200]
